{"source": "ChEMBL document CHEMBL5137056", "about": "“Micromonospora: A Prolific Source of Bioactive Secondary Metabolites with Therapeutic Potential” (J Med Chem, 2022)", "key": {"[1]": {"target": "NAD(P)H dehydrogenase [quinone] 1 (Mus musculus) (UniProt Q64669)", "sequence (Q64669 whole entry)": "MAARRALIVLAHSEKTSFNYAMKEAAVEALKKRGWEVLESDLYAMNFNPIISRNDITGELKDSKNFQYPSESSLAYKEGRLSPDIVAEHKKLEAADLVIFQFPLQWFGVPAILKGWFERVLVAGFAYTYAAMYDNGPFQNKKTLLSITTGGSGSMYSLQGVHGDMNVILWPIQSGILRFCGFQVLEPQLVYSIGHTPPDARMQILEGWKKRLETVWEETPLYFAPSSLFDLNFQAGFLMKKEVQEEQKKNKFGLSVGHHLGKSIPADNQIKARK", "experiment": "Activation of QR1 in mouse hepatoma cells incubated for 48 hrs by MTT assay", "assay_type": "cell-based", "details": "Hepatoma cell line, filed as activator"}, "[2]": {"experiment": "Upregulation of glutathione level in mouse Hepa1c1c7 cells assessed as drug concentration required for double induction incubated for 48 hrs in presence of NADPH by Ellman method", "assay_type": "functional"}, "Staphylococcus aureus [3]": {"test_system": "Staphylococcus aureus", "experiment": "Antibacterial activity methicillin-resistant Staphylococcus aureus ATCC 43300 assessed as bacterial growth inhibition by microdilution method", "assay_type": "functional"}, "Staphylococcus aureus [4]": {"test_system": "Staphylococcus aureus", "experiment": "Antibacterial activity against Staphylococcus aureus NBRC12732 assessed as bacterial growth inhibition", "assay_type": "functional"}, "[5]": {"experiment": "Inhibition of gastrulation in starfish embryo", "assay_type": "functional", "details": "Marthasterias glacialis"}, "KB": {"test_system": "KB", "experiment": "Cytotoxicity against human KB cells assessed as reduction in cell viability", "assay_type": "functional", "details": "read-out: ED50 (the source's name)"}, "[6]": {"test_system": "Human immunodeficiency virus", "experiment": "Antiviral activity agianst HIV assessed as viral growth inhibition", "assay_type": "functional, organism-based", "details": "Human immunodeficiency virus 1"}, "[7]": {"experiment": "Inhibition of Staphylococcus tyrS using tyrosine as substrate preincubated for 10 mins by substrate addition and measured after 2 hrs", "parameters": "species or system Staphylococcus sp."}}}
{"smiles": "CC[C@H]1C[C@@H](C)C(=O)/C=C/[C@]2(C)O[C@H]2[C@H](C)[C@@H](CC)OC(=O)C[C@@H](O)[C@H](C)[C@H]1O[C@@H]1O[C@@H](C)[C@H](O)[C@@H](O)[C@H]1O", "values": [{"measurement": "CD", "setting": "[1]", "value": 10.1, "unit": "µM"}, {"measurement": "CD", "setting": "[2]", "value": 27.7, "unit": "µM"}]}
{"smiles": "CNC1=CC(=O)c2c(cnc(C)c2C)C1=O", "note": "[MANSOURAMYCIN A]", "values": [{"measurement": "MIC", "setting": "Staphylococcus aureus [3]", "value": 8, "unit": "µg/mL"}]}
{"smiles": "CC1=C[C@@]2(C)C/C=C/[C@@H](C)[C@@H]3C=C[C@@H]4C[C@@H](C)CC[C@H]4[C@]3(C)C(=O)C3=C(O)[C@@]2(C[C@H]1C[C@@H](C)O)OC3=O", "values": [{"measurement": "MIC", "setting": "Staphylococcus aureus [4]", "value": 1.6, "unit": "µg/mL"}]}
{"smiles": "C=C/C=C/[C@H]1O[C@@](O)([C@@H](C)[C@H](O)[C@H](C)[C@H]2OC(=O)/C(OC)=C/C(C)=C/[C@@H](C)[C@@H](O)[C@@H](C)C/C(C)=C/C=C/[C@@H]2OC)C[C@@H](O)[C@@H]1C", "values": [{"measurement": "MIC", "setting": "[5]", "value": 0.01, "unit": "µg/mL"}]}
{"smiles": "COc1n/c(=C\\c2ccccc2)c(=O)[nH]/c1=C\\c1ccccc1", "values": [{"measurement": "EC50", "setting": "KB", "value": 0.94, "unit": "µg/mL"}]}
{"smiles": "CCC(C)CCCCCCCC[C@@H](O)CC(=O)N[C@@H](CCC(=O)O)C(=O)N[C@@H](CC(C)C)C(=O)N[C@H](CC(C)C)C(=O)N[C@H](C(=O)N[C@@H](CC(=O)O)C(=O)N[C@H](CC(C)C)C(=O)N[C@@H](CC(C)C)C(=O)O)C(C)C", "note": "(stereo partly specified)", "values": [{"measurement": "IC50", "setting": "[6]", "value": 5.3, "unit": "µM"}]}
{"smiles": "N[C@@H](Cc1ccc(O)cc1)C(=O)N[C@H](C(=O)O)[C@H]1[C@H](O)[C@]2(O)CO[C@@H]([C@@H]2O)N1O", "values": [{"measurement": "IC50", "setting": "[7]", "value": "< 1", "unit": "nM"}]}
{"smiles": "C[C@H]1CC[C@@H]2[C@H](C=C[C@H]3[C@H](C)/C=C/C[C@]4(C)C=C(CO)[C@H](C[C@@H](C)O)C[C@]45OC(=O)C(=C5O)C(=O)[C@@]23C)C1", "note": "[MAKLAMICIN]", "values": [{"measurement": "MIC", "setting": "Staphylococcus aureus [4]", "value": 13, "unit": "µg/mL"}]}
{"smiles": "CC(C)CCCCCCCC[C@@H](O)CC(=O)N[C@@H](CCC(=O)O)C(=O)N[C@@H](CC(C)C)C(=O)N[C@H](CC(C)C)C(=O)N[C@H](C(=O)N[C@@H](CC(=O)O)C(=O)N[C@H](CC(C)C)C(=O)N[C@@H](CC(C)C)C(=O)O)C(C)C", "values": [{"measurement": "IC50", "setting": "[6]", "value": 5.3, "unit": "µM"}]}
{"smiles": "C=C/C=C/[C@H]1O[C@@](O)([C@@H](C)[C@H](O)[C@H](C)[C@H]2OC(=O)/C(OC)=C/C(C)=C/[C@@H](C)[C@@H](O)[C@@H](C)C/C(C)=C/C=C/[C@@H]2OC)C[C@@H](OC(=O)/C=C/C(=O)NC2=C(O)CCC2=O)[C@@H]1C", "values": [{"measurement": "MIC", "setting": "[5]", "value": 0.01, "unit": "µg/mL"}]}
